Measurements published in the NIST ThermoML archive (doi:10.1016/j.jct.2015.09.002).

Assay: xn = mol fraction of the nth substance listed
Conditions: 93.2 kPa, Liquid, Vibrating tube method

CCN(CC)CC [triethylamine] + CC#N
mass density [kg/m3]
Conditions | 293.15 K | 298.15 K | 303.15 K | 308.15 K
x2 = 0 | 727.7 | 723.02 | 718.36 | 713.65
x2 = 0.0113 | 728.13 | 723.44 | 718.77 | 714.06
x2 = 0.0212 | 728.41 | 723.73 | 719.05 | 714.32
x2 = 0.03 | 728.67 | 723.97 | 719.29 | 714.57
x2 = 0.0406 | 728.98 | 724.28 | 719.6 | 714.86
x2 = 0.0502 | 729.23 | 724.53 | 719.84 | 715.1
x2 = 0.0591 | 729.48 | 724.77 | 720.06 | 715.32
x2 = 0.0701 | 729.78 | 725.07 | 720.35 | 715.6
x2 = 0.0842 | 730.18 | 725.45 | 720.73 | 715.97
x2 = 0.0944 | 730.47 | 725.73 | 721.02 | 716.24
x2 = 0.1013 | 730.66 | 725.97 | 721.24 | 716.48
x2 = 0.1519 | 732.16 | 727.46 | 722.63 | 717.85
x2 = 0.1991 | 733.6 | 728.85 | 723.99 | 719.16
x2 = 0.2501 | 735.21 | 730.39 | 725.53 | 720.64
x2 = 0.3018 | 736.94 | 732.07 | 727.17 | 722.25
x2 = 0.3505 | 738.65 | 733.76 | 728.84 | 723.88
x2 = 0.4003 | 740.52 | 735.58 | 730.62 | 725.63
x2 = 0.4482 | 742.43 | 737.48 | 732.49 | 727.48
x2 = 0.5002 | 744.69 | 739.7 | 734.68 | 729.63
x2 = 0.5511 | 747.1 | 742.08 | 737.03 | 731.95
x2 = 0.5995 | 749.58 | 744.55 | 739.43 | 734.36
x2 = 0.6499 | 752.4 | 747.32 | 742.18 | 737.06
x2 = 0.702 | 755.6 | 750.5 | 745.3 | 740.16
x2 = 0.7498 | 758.83 | 753.71 | 748.42 | 743.28
x2 = 0.7998 | 762.53 | 757.35 | 752.07 | 746.81
x2 = 0.85 | 766.68 | 761.45 | 756.13 | 750.82
x2 = 0.8994 | 771.19 | 765.92 | 760.59 | 755.2
x2 = 0.9095 | 772.21 | 766.93 | 761.6 | 756.23
x2 = 0.9199 | 773.25 | 767.97 | 762.63 | 757.25
x2 = 0.9293 | 774.23 | 768.93 | 763.58 | 758.19
x2 = 0.9402 | 775.35 | 770.05 | 764.69 | 759.29
x2 = 0.9495 | 776.36 | 771.03 | 765.7 | 760.33
x2 = 0.9591 | 777.43 | 772.08 | 766.69 | 761.27
x2 = 0.9685 | 778.48 | 773.13 | 767.72 | 762.31
x2 = 0.99 | 780.9 | 775.52 | 770.1 | 764.64

CCCNCCC [dipropylamine] + CC#N
mass density [kg/m3]
Conditions | 293.15 K | 298.15 K | 303.15 K | 308.15 K
x2 = 0 | 738.18 | 733.64 | 729.07 | 724.48
x2 = 0.0106 | 738.6 | 734.04 | 729.47 | 724.87
x2 = 0.0215 | 738.86 | 734.31 | 729.71 | 725.09
x2 = 0.0323 | 739.1 | 734.53 | 729.92 | 725.29
x2 = 0.0406 | 739.28 | 734.72 | 730.09 | 725.48
x2 = 0.0507 | 739.51 | 734.94 | 730.32 | 725.71
x2 = 0.0605 | 739.75 | 735.16 | 730.53 | 725.91
x2 = 0.0684 | 739.93 | 735.34 | 730.7 | 726.08
x2 = 0.0801 | 740.21 | 735.61 | 730.96 | 726.32
x2 = 0.0926 | 740.51 | 735.91 | 731.26 | 726.61
x2 = 0.101 | 740.71 | 736.11 | 731.45 | 726.79
x2 = 0.1493 | 741.88 | 737.23 | 732.56 | 727.89
x2 = 0.2009 | 743.16 | 738.47 | 733.79 | 729.06
x2 = 0.2547 | 744.47 | 739.78 | 735.06 | 730.34
x2 = 0.3001 | 745.65 | 740.94 | 736.2 | 731.45
x2 = 0.3514 | 747.06 | 742.32 | 737.55 | 732.77
x2 = 0.3995 | 748.45 | 743.68 | 738.88 | 734.07
x2 = 0.4556 | 750.19 | 745.39 | 740.57 | 735.71
x2 = 0.5008 | 751.71 | 746.88 | 742.02 | 737.15
x2 = 0.551 | 753.52 | 748.66 | 743.77 | 738.86
x2 = 0.6037 | 755.61 | 750.71 | 745.77 | 740.81
x2 = 0.6481 | 757.56 | 752.63 | 747.66 | 742.67
x2 = 0.6992 | 760.02 | 755.04 | 750.02 | 744.98
x2 = 0.7495 | 762.68 | 757.65 | 752.58 | 747.48
x2 = 0.7997 | 765.7 | 760.61 | 755.49 | 750.33
x2 = 0.8496 | 769.02 | 763.85 | 758.66 | 753.43
x2 = 0.9002 | 772.87 | 767.63 | 762.35 | 757.05
x2 = 0.9092 | 773.6 | 768.35 | 763.04 | 757.76
x2 = 0.9194 | 774.47 | 769.22 | 763.9 | 758.59
x2 = 0.9298 | 775.37 | 770.09 | 764.79 | 759.45
x2 = 0.9492 | 777.14 | 771.83 | 766.49 | 761.13
x2 = 0.9697 | 779.11 | 773.75 | 768.36 | 762.97
x2 = 0.9892 | 781.03 | 775.63 | 770.22 | 764.78
